Holding throughout (assay type): biochemical
Assay [1] deals with T1, urokinase (Homo sapiens, UniProt P00749).
T1 construct: purchased Mochida Pharmaceutical Urokinase 60,000 (60,000 U/vial)
The assay can be described thus: Assay for inhibitory activity against urokinase (synthetic substrate MUK-34). To be noted: Table 3, compounds of the invention; MUK-34, pH 8.20, 37° C.; read-out: Urokinase. The source says: (§1) As synthetic substrate used to examine the activity of the inhibitor for inhibiting substrate decomposition with the enzyme, there were used PS-994 (H-D-Lys(Tos)-Phe-Lys-CHA.2HCl, manufactured by Nitto Boseki Co., Ltd.) for plasmin, PS-915 (H-D-Phe-Pro-Arg-CHA.2HCl, manufactured by Nitto Boseki Co., Ltd.) for thrombin and trypsin, PS-2000 (Z-D-Lys(HCO)-Gly-Arg-CHA.HCl, manufactured by Nitto Boseki Co., Ltd.) for factor Xa, S-2302 (H-D-Pro-Phe-Arg-pNA, manufactured by Kabi Co.) for kallikrein, and MUK-34: [drawing 5] for urokinase.
(§2) As plasmin, thrombin, trypsin, factor Xa, kallikrein and urokinase, there were used 0.3 CU/ml of Sankyo Color Test α2 -PI Assay Kit Standard, 1.2 NIH U/ml of Sankyo Color Test ATIII Assay Kit, 2 μg/ml of Code 3703 manufactured by Worsingstone Co., 0.25 U/ml of human factor Xa manufactured by Boehringer Mannheim, 0.12 U/ml of human plasma kallikrein manufactured by Kabi Co., and 1000 U/ml of Mochida Pharmaceutical Urokinase 60,000 (60,000 U/vial), respectively. In the case of CHA type substrate, a color-forming termination solution for Sankyo Color Test Kit was used. Enzyme reactions were carried out at 37° C.
Assay For Inhibitory Activity Against Urokinase
An aqueous solution (0.1 ml) of […] the inhibitor was added to 0.3 ml of buffer (150 mM sodium chloride aqueous solution containing 50 mM Tris, pH 8.20) and the mixture was heated for 5 minutes. Thereafter 0.1 ml of urokinase solution (containing 50 mM Tris, 150 mM sodium chloride aqueous solution and 0.1% BSA, pH 8.20) was added thereto, and the mixture was reacted for 5 minutes. Furthermore, 10 mM MUK-34 aqueous solution (0.1 ml) was added thereto, and the mixture was reacted for 5 minutes. Then 10% acetic acid aqueous solution (2.0 ml) was added to the mixture to terminate the reaction. Absorbance was measured at 405 nm and IC50 was determined by the method described above.

Assay [2] has as its target T2, human factor Xa (Homo sapiens, UniProt P00742).
T2 construct: purchased Boehringer Mannheim
Nature of the assay: Assay for inhibitory activity against factor Xa (synthetic substrate PS-2000). As to conditions: Table 3, compounds of the invention; PS-2000, pH 8.5, 37° C.; read-out: Factor.
Source text: as §1, §2
Assay For Inhibitory Activity Against Factor Xa
To 0.3 ml of buffer (150 mM sodium chloride aqueous solution containing 50 mM Tris, pH 8.5) was added 0.1 ml each of an aqueous solution of the inhibitor having various concentrations. The mixture was heated for 5 minutes. Then, 0.1 ml of factor Xa solution (150 mM solution chloride aqueous solution containing 50 mM Tris and 20 mM calcium chloride, pH 8.5) was added thereto, and the mixture was reacted for 5 minutes. Furthermore,5% polyvinylpyrrolidone solution (0.1 ml) containing 10 mM PS-2000 was added thereto, and the mixture was again reacted for 5 minutes. Then, 2 ml of the color-forming termination solution was added to the reaction mixture. Then the mixture was allowed to stand for 10 minutes and absorbance was measured at 700 nm. IC50 was determined by the method described above.

Assay [3] concerns the target T3, trypsin (Bos taurus, UniProt P00760).
T3 construct: purchased Worsingstone Co. (so in the source)
T3 sequence (P00760 24-246): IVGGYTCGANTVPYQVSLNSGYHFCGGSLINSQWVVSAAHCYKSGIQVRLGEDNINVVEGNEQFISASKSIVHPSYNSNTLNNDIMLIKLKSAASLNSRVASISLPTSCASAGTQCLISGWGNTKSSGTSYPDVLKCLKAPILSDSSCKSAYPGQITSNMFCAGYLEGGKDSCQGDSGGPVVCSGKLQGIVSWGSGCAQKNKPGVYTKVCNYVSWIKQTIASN
The assay can be described thus: Assay for inhibitory activity against trypsin (synthetic substrate PS-915). As to conditions: Table 3, compounds of the invention; PS-915, pH 8.0, 37° C.; read-out: Trypsin.
Source text: as §1, §2
Assay For Inhibitory Activity Against Trypsin
After 0.1 ml of an aqueous solution of the inhibitor was added to 0.5 ml of buffer (150 mM sodium chloride aqueous solution containing 150 mM Tris, pH 8.0) and the mixture was heated for 5 minutes, 0.1 ml of trypsin solution was added thereto. The mixture was reacted for 5 minutes. Furthermore, 0.1 ml of PS-915 solution (10 mM) was added thereto. The mixture was again reacted for 5 minutes. Then, 2 ml of the color-forming termination solution [containing 2.5 mg/ml of soybean trypsin inhibitor (manufactured by Sigma Co., No. T-9003)] was added to the reaction mixture. Then the mixture was allowed to stand for 10 minutes and absorbance was measured at 700 nm. IC50 was determined by the method described above.

Assay [4] addresses T4, human plasma kallikrein (Homo sapiens, UniProt P03952).
T4 construct: purchased Kabi Co
Nature of the assay: Assay for inhibitory activity against kallikrein (synthetic substrate S-2302). As to conditions: Table 3, compounds of the invention; S-2302, pH 8.0, 37° C.; read-out: Kallikrein.
Source text: as §1, §2
Assay For Inhibitory Activity Against Kallikrein
To 0.4 ml of buffer (150 mN sodium chloride aqueous solution containing 50 mM Tris, pH 8.0) was added 0.1 ml each of aqueous solutions of the inhibitor having various concentrations and the mixture was heated for 5 minutes. Then, 0.1 ml of kallikrein solution (containing 0.5% bovine serum albumin, No. A-8022 of Sigma Co.) was added thereto, and the mixture was reacted for 5 minutes. Furthermore, 10 mM S-2302 aqueous solution (0.1 ml) was added thereto, and the mixture was again reacted for 5 minutes. Then, 5 ml of 20% acetic acid aqueous solution was added to terminate the reaction. Absorbance was measured at 405 nm and IC50 was determined by the method described above.

Assay [5] concerns the target T5, thrombin (Homo sapiens, UniProt P00734).
T5 construct: purchased Sankyo (Sankyo Color Test ATIII Assay Kit)
The assay can be described thus: Assay for inhibitory activity against thrombin (synthetic substrate PS-915). To be noted: Table 3, compounds of the invention; PS-915, pH 8.5, 37° C.; read-out: Thrombin.
Source text: as §1, §2
Assay For Inhibitory Activity Against Thrombin
Each aqueous solution (0.1 ml) of the inhibitor having various concentrations was added to 0.4 ml of buffer (150 mM sodium chloride aqueous solution containing 150 mM Tris, pH 8.5) and the mixture was heated for 5 minutes. Then, 0.2 ml of the thrombin solution was added thereto and the mixture was reacted for 5 minutes. After 0.1 ml of PS-915 solution (10 mM) was added thereto, the mixture was again reacted for 5 minutes. Then, 2 ml of the color-forming termination solution was added to the reaction mixture. Then the mixture was allowed to stand for 10 minutes and absorbance was measured at 700 nm. IC50 was determined by the method described above.

Assay [6] addresses T6, plasmin (Homo sapiens, UniProt P00747).
T6 construct: purchased Sankyo (Sankyo Color Test α2 -PI Assay Kit Standard)
Nature of the assay: Assay for inhibitory activity against plasmin (synthetic substrate PS-994). To be noted: Table 3, compounds of the invention; PS-994, pH 7.8, 37° C.; read-out: Plasmin.
Source text: as §1, §2
Assay For Inhibitory Activity Against Plasmin
Each aqueous solution (0.1 ml) of the inhibitor having various concentrations was added to 0.4 ml of buffer (150 mM sodium chloride aqueous solution containing 100 mM Tris, pH 7.8) and the mixture was heated for 5 minutes. After 0.2 ml of the plasmin solution was added thereto, the mixture was reacted for 5 minutes. After 0.1 ml of PS-994 solution (10 mM) was added thereto, and the mixture was again reacted for 5 minutes. Then, 2.0 ml of the color-forming termination solution was added to the reaction mixture. Then the mixture was allowed to stand for 10 minutes and absorbance was measured at 700 nm. A concentration of the inhibitor in the reaction system showing 1/2 absorbance that of the case where no inhibitor was present was determined to be IC50.

T6 sequence (P00747 581-810 limits assumed, species assumed): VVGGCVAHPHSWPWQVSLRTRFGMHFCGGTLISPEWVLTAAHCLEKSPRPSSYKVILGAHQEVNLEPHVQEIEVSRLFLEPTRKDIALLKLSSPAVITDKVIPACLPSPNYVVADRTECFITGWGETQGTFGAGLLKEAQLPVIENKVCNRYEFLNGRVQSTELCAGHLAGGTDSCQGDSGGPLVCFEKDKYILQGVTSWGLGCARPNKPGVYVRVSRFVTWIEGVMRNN
T6 sequence (P00747 97-580 partner limits assumed, species assumed): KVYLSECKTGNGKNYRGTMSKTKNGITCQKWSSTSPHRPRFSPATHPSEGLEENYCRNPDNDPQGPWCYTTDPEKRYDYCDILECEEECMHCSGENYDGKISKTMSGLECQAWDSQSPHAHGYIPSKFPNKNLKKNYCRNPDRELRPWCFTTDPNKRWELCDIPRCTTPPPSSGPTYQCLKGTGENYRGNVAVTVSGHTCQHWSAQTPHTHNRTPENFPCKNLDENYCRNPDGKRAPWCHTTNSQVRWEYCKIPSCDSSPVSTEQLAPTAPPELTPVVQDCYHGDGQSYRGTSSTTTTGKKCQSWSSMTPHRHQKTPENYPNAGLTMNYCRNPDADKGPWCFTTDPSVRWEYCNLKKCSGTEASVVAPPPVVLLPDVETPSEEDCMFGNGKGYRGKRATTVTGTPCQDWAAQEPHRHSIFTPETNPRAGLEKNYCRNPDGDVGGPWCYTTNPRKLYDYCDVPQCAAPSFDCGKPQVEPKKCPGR
T2 sequence (P00742 235-488 limits assumed): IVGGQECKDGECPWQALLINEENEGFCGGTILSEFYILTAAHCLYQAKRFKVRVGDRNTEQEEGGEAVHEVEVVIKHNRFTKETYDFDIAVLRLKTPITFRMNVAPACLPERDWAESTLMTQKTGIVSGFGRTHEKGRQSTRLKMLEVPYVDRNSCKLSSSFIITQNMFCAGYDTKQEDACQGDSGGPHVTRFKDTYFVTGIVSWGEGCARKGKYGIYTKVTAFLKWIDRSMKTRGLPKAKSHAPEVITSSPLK
T2 sequence (P00742 41-179 partner limits assumed): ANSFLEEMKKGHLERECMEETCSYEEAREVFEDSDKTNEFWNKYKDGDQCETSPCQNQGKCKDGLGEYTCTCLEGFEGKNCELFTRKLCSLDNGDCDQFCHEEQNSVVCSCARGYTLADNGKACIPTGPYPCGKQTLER
T4 sequence (P03952 20-638): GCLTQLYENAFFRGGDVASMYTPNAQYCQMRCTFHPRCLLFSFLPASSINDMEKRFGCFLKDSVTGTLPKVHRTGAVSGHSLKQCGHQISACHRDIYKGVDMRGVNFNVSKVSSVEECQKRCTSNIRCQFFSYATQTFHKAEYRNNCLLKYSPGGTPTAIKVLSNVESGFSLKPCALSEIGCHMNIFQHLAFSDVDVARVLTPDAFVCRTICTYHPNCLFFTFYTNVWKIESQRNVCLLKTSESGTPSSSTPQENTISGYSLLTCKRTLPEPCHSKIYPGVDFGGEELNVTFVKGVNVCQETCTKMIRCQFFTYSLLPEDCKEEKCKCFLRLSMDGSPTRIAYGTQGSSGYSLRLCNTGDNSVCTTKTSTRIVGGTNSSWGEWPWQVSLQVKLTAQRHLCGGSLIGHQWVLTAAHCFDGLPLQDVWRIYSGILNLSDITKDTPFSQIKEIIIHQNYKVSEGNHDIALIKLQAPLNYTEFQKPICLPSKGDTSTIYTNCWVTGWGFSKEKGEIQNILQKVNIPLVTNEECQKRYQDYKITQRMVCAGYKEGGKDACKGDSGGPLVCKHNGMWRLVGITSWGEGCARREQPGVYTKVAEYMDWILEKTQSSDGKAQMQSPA

Turning to “N-ε-Ethanesulfonyl-D-lysyl-L-prolyl-L-argininal sulfate [Example 5]”, the IC50 in assay [1] came out at 81 µM; in assay [2], 18 µM; in assay [3], 0.065 µM; in assay [4], 5.4 µM; in assay [5], 1.3 µM; in assay [6], 6.3 µM.
For the substance “N-ε-acetyl-D-lysyl-L-prolyl-L-argininal sulfate [Example 10]”, the IC50 in assay [1] was found to be 40 µM; in assay [2], 4.1 µM; in assay [3] it was 0.06 µM; in assay [4] it was 4 µM; in assay [5], 0.33 µM; in assay [6], 4.3 µM.

For the origin of these results see patent US5153176A, “Tripeptide derivatives and protease inhibitor composition comprising the same” (Nitto Boseki Co., Ltd., priority 1990, dated 1992).
